Data on 1 compound can be found in the NIST ThermoML archive (doi:10.1016/j.fluid.2014.01.018).

Data set [1] in a line: Molar enthalpy of transition or fusion. To be noted: Crystal; DSC.
The conditions of data set [2]: Crystal; DTA.

Numbers after ± are expanded uncertainties.

Regarding `CC(C)C1=CC2=CC[C@@H]3[C@](C)(CCC[C@@]3(C)C(=O)O)[C@H]2CC1` [abietic acid], the “Molar enthalpy of transition or fusion” value in data set [1] came out at 4.65 ± 0.136 kcal/mol. For the same compound, in data set [2], the Normal melting temperature stood at 177.74 ± 0.41 °C.
